Reference: patent US3960833A, “Butirosin A 3",5"-O-isopropylidene derivatives” (Bristol-Myers Company, priority 1975, dated 1976)
Values after ≈ are worked out from the molar mass of the structure shown.

Assays:
Experiment in all cases: MIC by Steers agar-dilution method on Mueller-Hinton medium
Type in all cases: cell-based
E. coli A20107 = conditions: Escherichia coli; E. coli A20107; Mueller-Hinton medium; read-out: MIC
Description: (§1) Illustrated below is a table showing the minimal inhibitory concentrations (MIC's) of butirosin A, 4'-deoxybutirosin A and compound 11 (BB-K186) against a variety of gram-positive and gram-negativebacteria as obtained by the Steers agar-dilution method on Mueller-Hinton medium.

E. coli A20732 = conditions: Escherichia coli; E. coli A20732; Mueller-Hinton medium; read-out: MIC
Description: as §1

E. coli A20895 = conditions: Escherichia coli; E. coli A20895; Mueller-Hinton medium; read-out: MIC
Description: as §1

E. coli JR35/C600 = conditions: Escherichia coli
Description: as §1

E. coli JR66/W677 = conditions: Escherichia coli
Description: as §1

E. coli ML1630 = conditions: Escherichia coli; E. coli ML1630; Mueller-Hinton medium; read-out: MIC
Description: as §1

E. coli NIHJ = conditions: Escherichia coli; E. coli NIHJ; Mueller-Hinton medium; read-out: MIC
Description: as §1

E. coli NR79/W677 = conditions: Escherichia coli
Description: as §1

E. coli PO1495 = conditions: Escherichia coli
Description: as §1

E. coli R5 = conditions: Escherichia coli; E. coli R5; Mueller-Hinton medium; read-out: MIC
Description: as §1

Ent. cloacae A20364 = conditions: Enterobacter cloacae; Ent. cloacae A20364; Mueller-Hinton medium; read-out: MIC
Description: as §1

Ent. cloacae A21006 = conditions: Enterobacter cloacae; Ent. cloacae A21006; Mueller-Hinton medium; read-out: MIC
Description: as §1

K. pneumoniae 22-3038 = conditions: Klebsiella pneumoniae, 223038; K. pneumoniae 22-3038; Mueller-Hinton medium; read-out: MIC
Description: as §1

K. pneumoniae D11 = conditions: Klebsiella pneumoniae; K. pneumoniae D11; Mueller-Hinton medium; read-out: MIC
Description: as §1

Pr. mirabilis A9554 = conditions: Proteus mirabilis; Pr. mirabilis A9554; Mueller-Hinton medium; read-out: MIC
Description: as §1

Pr. morganii A20031 = conditions: Morganella morganii; Pr. morganii A20031; Mueller-Hinton medium; read-out: MIC
Description: as §1

Pr. vulgaris A9436 = conditions: Proteus vulgaris; Pr. vulgaris A9436; Mueller-Hinton medium; read-out: MIC
Description: as §1

Prov. stuartii A20894 = conditions: Providencia stuartii; Prov. stuartii A20894; Mueller-Hinton medium; read-out: MIC
Description: as §1

Ps. aeruginosa A20601 = conditions: Pseudomonas aeruginosa; Ps. aeruginosa A20601; Mueller-Hinton medium; read-out: MIC
Description: as §1

Ps. aeruginosa A20635 = conditions: Pseudomonas aeruginosa; Ps. aeruginosa A20635; Mueller-Hinton medium; read-out: MIC
Description: as §1

Ps. aeruginosa A20896 = conditions: Pseudomonas aeruginosa; Ps. aeruginosa A20896; Mueller-Hinton medium; read-out: MIC
Description: as §1

Ps. aeruginosa A9930 = conditions: Pseudomonas aeruginosa; Ps. aeruginosa A9930; Mueller-Hinton medium; read-out: MIC
Description: as §1

Ps. aeruginosa GN-315 = conditions: Pseudomonas aeruginosa, GN315; Ps. aeruginosa GN-315; Mueller-Hinton medium; read-out: MIC
Description: as §1

Ps. aeruginosa No. 130 = conditions: Pseudomonas aeruginosa; Ps. aeruginosa No. 130; Mueller-Hinton medium; read-out: MIC
Description: as §1

Pseudomonas sp. A20621 = conditions: Pseudomonas sp. A20621; Mueller-Hinton medium; read-out: MIC
Description: as §1

S. aureus A20239 = conditions: Staphylococcus aureus; S. aureus A20239; Mueller-Hinton medium; read-out: MIC
Description: as §1

S. aureus D133 = conditions: Staphylococcus aureus; S. aureus D133; Mueller-Hinton medium; read-out: MIC
Description: as §1

S. aureus D137 = conditions: Staphylococcus aureus; S. aureus D137; Mueller-Hinton medium; read-out: MIC
Description: as §1

S. aureus D193 = conditions: Staphylococcus aureus; S. aureus D193; Mueller-Hinton medium; read-out: MIC
Description: as §1

S. aureus Smith = conditions: Staphylococcus aureus; S. aureus Smith; Mueller-Hinton medium; read-out: MIC
Description: as §1

Ser. marcescens A20019 = conditions: Serratia marcescens; Ser. marcescens A20019; Mueller-Hinton medium; read-out: MIC
Description: as §1

Ser. marcescens A21247 = conditions: Serratia marcescens; Ser. marcescens A21247; Mueller-Hinton medium; read-out: MIC
Description: as §1

NCC[C@H](O)C(=O)N[C@@H]1C[C@H](N)[C@@H](O[C@H]2O[C@H](CN)C[C@H](O)[C@H]2N)[C@H](O[C@@H]2O[C@H](CO)[C@H](O)[C@H]2O)[C@H]1O [Bu-1975C1, 4'-deoxybutirosin A]
MIC (E. coli A20107): 3.1 µg/mL (≈ 5.75 µM) | MIC (E. coli A20732): 1.6 µg/mL (≈ 2.97 µM) | MIC (E. coli A20895): 3.1 µg/mL (≈ 5.75 µM) | MIC (E. coli JR35/C600): 0.8 µg/mL (≈ 1.48 µM) | MIC (E. coli JR66/W677): 6.3 µg/mL (≈ 11.7 µM) | MIC (E. coli ML1630): 3.1 µg/mL (≈ 5.75 µM) | MIC (E. coli NIHJ): 1.6 µg/mL (≈ 2.97 µM) | MIC (E. coli NR79/W677): > 100 µg/mL | MIC (E. coli PO1495): 1.6 µg/mL (≈ 2.97 µM) | MIC (E. coli R5): 3.1 µg/mL (≈ 5.75 µM) | MIC (Ent. cloacae A20364): 3.1 µg/mL (≈ 5.75 µM) | MIC (Ent. cloacae A21006): 6.3 µg/mL (≈ 11.7 µM) | MIC (K. pneumoniae 22-3038): 6.3 µg/mL (≈ 11.7 µM) | MIC (K. pneumoniae D11): 0.8 µg/mL (≈ 1.48 µM) | MIC (Pr. mirabilis A9554): 1.6 µg/mL (≈ 2.97 µM) | MIC (Pr. morganii A20031): 3.1 µg/mL (≈ 5.75 µM) | MIC (Pr. vulgaris A9436): 0.8 µg/mL (≈ 1.48 µM) | MIC (Prov. stuartii A20894): > 100 µg/mL | MIC (Ps. aeruginosa A20601): 25 µg/mL (≈ 46.3 µM) | MIC (Ps. aeruginosa A20635): > 100 µg/mL | MIC (Ps. aeruginosa A20896): 50 µg/mL (≈ 92.7 µM) | MIC (Ps. aeruginosa A9930): 1.6 µg/mL (≈ 2.97 µM) | MIC (Ps. aeruginosa GN-315): > 100 µg/mL | MIC (Ps. aeruginosa No. 130): 25 µg/mL (≈ 46.3 µM) | MIC (Pseudomonas sp. A20621): > 100 µg/mL | MIC (S. aureus A20239): 6.3 µg/mL (≈ 11.7 µM) | MIC (S. aureus D133): 6.3 µg/mL (≈ 11.7 µM) | MIC (S. aureus D137): 25 µg/mL (≈ 46.3 µM) | MIC (S. aureus D193): 3.1 µg/mL (≈ 5.75 µM) | MIC (S. aureus Smith): 1.6 µg/mL (≈ 2.97 µM) | MIC (Ser. marcescens A20019): 6.3 µg/mL (≈ 11.7 µM) | MIC (Ser. marcescens A21247): 6.3 µg/mL (≈ 11.7 µM)
